8 molecules from PubChem BioAssay (NCI) can be followed below.

Among the test systems are HCC-2998 colon; HL-60(TB) leukemia; IGROV1 ovarian; MDA-MB-435; OVCAR-5 ovarian; RPMI-8226 leukemia; RXF 393 renal; SF-295 CNS; UACC-257 melanoma; UACC-62 melanoma.
Assay in all cases: growth of human tumour cells (NCI), 48 h

Structures are written as SMILES.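 Protocol summary: plate cells (96-well), add compound at 5 concentrations, incubate 48 h, interpolate endpoints linearly. GI50 = concentration required for 50% inhibition of growth. Definition used: TGI = concentration required for complete inhibition of growth.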

Regarding `CCc1ccc(C(=Nc2ccc(N(C)C(=O)CN3CCN(C)CC3)cc2)c2c(O)[nH]c3ccc(C(=O)OC)cc23)cc1`, the GI50 is 0.587 µM in the experiment on HCC-2998 colon; 0.328 µM in the experiment on HL-60(TB) leukemia; 0.0714 µM in the experiment with IGROV1 ovarian; 0.532 µM in the experiment with MDA-MB-435; 1.25 µM in the experiment with OVCAR-5 ovarian; 0.424 µM in the experiment with RPMI-8226 leukemia. For the same molecule, the GI50 in the experiment with RXF 393 renal is 0.22 µM; in the experiment with SF-295 CNS it was 1.01 µM; in the experiment with UACC-257 melanoma, 1.54 µM; in the experiment on UACC-62 melanoma it was 1.37 µM. Moreover, the TGI in the experiment with HCC-2998 colon came out at 1.95 µM; with HL-60(TB) leukemia, 1.01 µM; in the experiment with IGROV1 ovarian, 1.11 µM; in the experiment on MDA-MB-435 it was 1.9 µM; in the experiment on OVCAR-5 ovarian, 2.57 µM; in the experiment with RPMI-8226 leukemia it was 1.67 µM. The TGI worked out at 1.2 µM in the experiment on RXF 393 renal, 2.4 µM in the experiment with SF-295 CNS, 3.2 µM with UACC-257 melanoma and 3.2 µM in the experiment with UACC-62 melanoma.

On to `CCCN(CCC)c1ccc(/C=N/NC(=O)c2cccnc2)c(OC)c1`, for which the GI50 in the experiment on HCC-2998 colon is 26.6 µM; with HL-60(TB) leukemia it was 22.7 µM; in the experiment on IGROV1 ovarian it was 29.3 µM; with MDA-MB-435, 10.3 µM; with OVCAR-5 ovarian, 26.5 µM; in the experiment on RPMI-8226 leukemia, 34.5 µM. Besides, the GI50 is 28.7 µM in the experiment on RXF 393 renal, 19 µM in the experiment with SF-295 CNS, 20.7 µM with UACC-257 melanoma and 16.2 µM with UACC-62 melanoma. For the same molecule, the TGI with HCC-2998 colon was 98.4 µM; in the experiment on HL-60(TB) leukemia it was 59.2 µM; with IGROV1 ovarian, greater than 100 µM; in the experiment on MDA-MB-435, 43 µM; with OVCAR-5 ovarian it was greater than 100 µM; in the experiment with RPMI-8226 leukemia, greater than 100 µM. Besides, the TGI in the experiment on RXF 393 renal came to 84.8 µM; in the experiment with SF-295 CNS it was 77.8 µM; in the experiment on UACC-257 melanoma, 67.6 µM; in the experiment with UACC-62 melanoma, 45.6 µM.

For the molecule `Fc1cccc(-n2ccc(-c3ccccc3)nc2=S)c1`, the GI50 in the experiment on HCC-2998 colon was 18.1 µM; in the experiment on HL-60(TB) leukemia it was 94 µM; in the experiment with IGROV1 ovarian, 25.5 µM; in the experiment with MDA-MB-435 it was 99.7 µM; with OVCAR-5 ovarian, greater than 94.4 µM; with RPMI-8226 leukemia, 47.1 µM. Further, the GI50 in the experiment with RXF 393 renal was 15.8 µM; with SF-295 CNS, 44.1 µM; with UACC-257 melanoma, 46.7 µM; with UACC-62 melanoma, greater than 54.6 µM. In addition, the TGI in the experiment on HCC-2998 colon was 33.4 µM; in the experiment on HL-60(TB) leukemia, greater than 100 µM; in the experiment on IGROV1 ovarian it was greater than 62.2 µM; with MDA-MB-435, greater than 100 µM; with OVCAR-5 ovarian it was greater than 100 µM; in the experiment with RPMI-8226 leukemia it was greater than 100 µM. Further, the TGI in the experiment with RXF 393 renal is 30 µM; with SF-295 CNS it was greater than 82.6 µM; in the experiment on UACC-257 melanoma it was greater than 100 µM; in the experiment with UACC-62 melanoma, greater than 100 µM.

Consider `O=C1C=CC(=O)N1c1cccc(N2C(=O)C=CC2=O)c1`, for which the GI50 with HCC-2998 colon was 12.9 µM; in the experiment with HL-60(TB) leukemia, 1.79 µM; in the experiment on IGROV1 ovarian, 2.38 µM; in the experiment on MDA-MB-435, 3.85 µM; in the experiment with OVCAR-5 ovarian, 1.81 µM; with RPMI-8226 leukemia it was 2.94 µM. Also, the GI50 in the experiment with RXF 393 renal was 1.7 µM; in the experiment on SF-295 CNS it was 21.2 µM; in the experiment with UACC-257 melanoma, 1.65 µM; with UACC-62 melanoma, 2.48 µM. For the same molecule, the TGI in the experiment on HCC-2998 colon came out at 26.4 µM; in the experiment on HL-60(TB) leukemia, 5.12 µM; in the experiment on IGROV1 ovarian, 5.52 µM; in the experiment with MDA-MB-435, 16.2 µM; in the experiment with OVCAR-5 ovarian, 4.06 µM; with RPMI-8226 leukemia, 7.19 µM. Besides, the TGI with RXF 393 renal was determined as 3.1 µM; in the experiment with SF-295 CNS, 44.5 µM; in the experiment with UACC-257 melanoma, 3.32 µM; in the experiment on UACC-62 melanoma it was 9.46 µM.

Turning to `Cc1cc(N2CCOCC2)nc(N(CCCNc2ccnc3cc(Cl)ccc23)Cc2ccco2)n1`, the GI50 in the experiment with HCC-2998 colon is 2.97 µM; in the experiment with HL-60(TB) leukemia, 1.87 µM; with IGROV1 ovarian, 2.18 µM; in the experiment on MDA-MB-435 it was 0.858 µM; in the experiment with OVCAR-5 ovarian it was 4.23 µM; in the experiment with RPMI-8226 leukemia it was 2.13 µM. Further, the GI50 with RXF 393 renal is 1.69 µM; with SF-295 CNS, 1.67 µM; with UACC-257 melanoma, 2.73 µM; with UACC-62 melanoma, 3.49 µM. The TGI with HCC-2998 colon stood at 8.18 µM; with HL-60(TB) leukemia it was 4.55 µM; with IGROV1 ovarian, 11.3 µM; with MDA-MB-435 it was 6.41 µM; with OVCAR-5 ovarian, 19.3 µM; in the experiment with RPMI-8226 leukemia, 6.33 µM. Besides, the TGI was determined as 4.43 µM in the experiment on RXF 393 renal, 6.23 µM in the experiment on SF-295 CNS, 7.33 µM with UACC-257 melanoma and 12.5 µM with UACC-62 melanoma.

For the molecule `C[N+](C)(C)CC(=O)N/N=C(\C(=O)NC1=C(Cl)C(=O)c2ccccc2C1=O)C(C#N)c1nc(-c2ccc([N+](=O)[O-])cc2)cs1` (stereo not given), the TGI in the experiment on HCC-2998 colon worked out at 30.5 µM; in the experiment on HL-60(TB) leukemia it was 47.4 µM; in the experiment on IGROV1 ovarian, 18.4 µM; in the experiment with MDA-MB-435, 3.17 µM; with OVCAR-5 ovarian, 26.3 µM; in the experiment with RPMI-8226 leukemia, 47 µM. Also, the TGI in the experiment on RXF 393 renal is 30.2 µM; in the experiment on SF-295 CNS it was 18.9 µM; with UACC-257 melanoma, 9.11 µM; in the experiment with UACC-62 melanoma it was 9.27 µM.

Turning to `COc1cc(C2=N/C(=C/c3cccs3)C(=O)O2)cc(OC)c1OC`, the TGI in the experiment on HCC-2998 colon, in the experiment with HL-60(TB) leukemia, in the experiment with IGROV1 ovarian, in the experiment on MDA-MB-435, in the experiment with OVCAR-5 ovarian and in the experiment on RPMI-8226 leukemia was greater than 100 µM each time. In addition, the TGI in the experiment on RXF 393 renal, with SF-295 CNS, in the experiment with UACC-257 melanoma and in the experiment with UACC-62 melanoma was greater than 100 µM throughout.

Consider `N#Cc1c(N)nc(N2CCOCC2)c(C#N)c1-c1ccccn1`, for which the GI50 in the experiment on HCC-2998 colon is greater than 82 µM; with HL-60(TB) leukemia, greater than 100 µM; in the experiment with IGROV1 ovarian, greater than 52.3 µM; in the experiment on MDA-MB-435, greater than 100 µM; in the experiment on OVCAR-5 ovarian it was greater than 100 µM; with RPMI-8226 leukemia it was greater than 50.3 µM. Moreover, the GI50 with RXF 393 renal is greater than 100 µM; with SF-295 CNS it was greater than 100 µM; in the experiment with UACC-257 melanoma, greater than 100 µM; in the experiment on UACC-62 melanoma, 0.0342 µM. For the same molecule, the TGI in the experiment with HCC-2998 colon, in the experiment with HL-60(TB) leukemia, in the experiment on IGROV1 ovarian, in the experiment with MDA-MB-435, with OVCAR-5 ovarian and with RPMI-8226 leukemia was greater than 100 µM throughout. In addition, the TGI in the experiment with RXF 393 renal was greater than 100 µM; with SF-295 CNS, greater than 100 µM; in the experiment with UACC-257 melanoma it was greater than 100 µM; with UACC-62 melanoma, 0.482 µM.
